Experimental data from patent publication US12187723B2 (BRISTOL-MYERS SQUIBB COMPANY, priority 2019, dated 2025).
Counter-ions that a name gives are not always drawn.

Molecular target: T1, human TLR7 (Homo sapiens, UniProt Q9NYK1)
T1 construct: host or cells: HEK-Blue cells
T1 sequence (Q9NYK1 27-1049): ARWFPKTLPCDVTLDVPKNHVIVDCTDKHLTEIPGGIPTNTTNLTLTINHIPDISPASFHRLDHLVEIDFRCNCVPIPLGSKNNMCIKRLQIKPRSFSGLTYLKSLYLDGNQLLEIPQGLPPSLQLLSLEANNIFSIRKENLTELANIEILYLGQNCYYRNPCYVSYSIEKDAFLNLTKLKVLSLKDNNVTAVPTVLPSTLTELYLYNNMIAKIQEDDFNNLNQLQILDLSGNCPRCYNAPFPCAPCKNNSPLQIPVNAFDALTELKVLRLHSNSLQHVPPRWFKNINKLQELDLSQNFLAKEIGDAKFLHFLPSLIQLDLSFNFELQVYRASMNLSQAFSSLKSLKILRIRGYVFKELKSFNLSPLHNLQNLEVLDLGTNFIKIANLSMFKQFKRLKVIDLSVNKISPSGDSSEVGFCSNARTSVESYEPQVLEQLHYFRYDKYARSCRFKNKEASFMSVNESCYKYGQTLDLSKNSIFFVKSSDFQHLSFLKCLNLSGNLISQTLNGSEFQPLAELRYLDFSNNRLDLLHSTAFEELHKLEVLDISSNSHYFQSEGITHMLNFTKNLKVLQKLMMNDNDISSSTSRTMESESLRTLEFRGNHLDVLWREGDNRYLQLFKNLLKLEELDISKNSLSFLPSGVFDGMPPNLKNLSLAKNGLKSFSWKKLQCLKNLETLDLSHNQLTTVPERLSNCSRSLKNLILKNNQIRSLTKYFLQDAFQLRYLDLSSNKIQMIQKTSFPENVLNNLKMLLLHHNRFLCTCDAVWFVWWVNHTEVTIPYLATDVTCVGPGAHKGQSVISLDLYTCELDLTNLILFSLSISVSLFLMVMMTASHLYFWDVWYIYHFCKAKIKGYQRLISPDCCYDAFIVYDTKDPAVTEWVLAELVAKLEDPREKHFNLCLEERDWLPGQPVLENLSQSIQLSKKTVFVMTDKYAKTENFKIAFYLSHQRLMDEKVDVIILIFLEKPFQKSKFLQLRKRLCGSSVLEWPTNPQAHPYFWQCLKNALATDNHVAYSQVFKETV
Experiment: TLR7 inhibition reporter assay (HEK-Blue SEAP)
Type: cell-based
Details: HEK-Blue cells overexpressing human TLR7, gardiquimod 7.5 μM, 22 hour incubation
Summary of the method: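 22 h, 37° C, 5% CO2 incubation; compounds 0.05 nM-50 μM final; TLR7 cells 15000/well, TLR8 20,000/well. Readout: SEAP via HEK-Blue Detection medium. % inhibition = signal reduction versus agonist + DMSO wells, referenced to known inhibitor.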

**Q.** Which IC50 does the source give for `Cc1c(-c2cc3[nH]c(=O)n(C4CCC(N5CCCC(F)C5)CC4)c3cc2C(C)C)cn2ncnc2c1C` (stereo not shown) [Example 273, 5-(7,8-dimethyl-[1,2,4]triazolo[1,5-a]pyridin-6-yl)-1-(4-(3-fluoropiperidin-1-yl)cyclohexyl)-6-isopropyl-1,3-dihydro-2H-benzo[d]imidazol-2-one] here?
**A.** 9.22 nM

**Q.** For `Cc1cc2c(cc1-c1cc(C)c3ncnn3c1)[nH]c(=O)n2[C@H]1CC[C@H](NC(C)C)CC1` [Example 25, 1-((1r,4s)-4-(isopropylamino)cyclohexyl)-6-methyl-5-(8-methyl-[1,2,4]triazolo[1,5-a]pyridin-6-yl)-1,3-dihydro-2H-benzo[d]imidazol-2-one], which IC50 is on record?
**A.** 20.2 nM

**Q.** `COCCNC1CCC(n2c(=O)[nH]c3cc(-c4cn5ncnc5c(OC)c4C)c(C(C)C)cc32)CC1` (stereo not shown) [Example 258] was tested. Which IC50 did it give?
**A.** 4.25 nM

**Q.** For `Cc1cc2c(cc1-c1cc(C)c3ncnn3c1)[nH]c(=O)n2[C@H]1CC[C@@H](NC(C)C)CC1` [Example 22, 1-((1s,4s)-4-(isopropylamino)cyclohexyl)-6-methyl-5-(8-methyl-[1,2,4]triazolo[1,5-a]pyridin-6-yl)-1,3-dihydro-2H-benzo[d]imidazol-2-one], which IC50 is on record?
**A.** 4.77 nM

**Q.** How did the IC50 turn out when `Cc1c(-c2cc3[nH]c(=O)n(C4CCC(N5CCC6(CC5)COC6)CC4)c3cc2C(C)C)cn2ncnc2c1C` (single isomer, unassigned) [Example 283, 1-(4-(2-oxa-7-azaspiro[3.5]nonan-7-yl)cyclohexyl)-5-(7,8-dimethyl-[1,2,4]triazolo[1,5-a]pyridin-6-yl)-6-isopropyl-1,3-dihydro-2H-benzo[d]imidazol-2-one] was run?
**A.** 1.82 nM

**Q.** How did the IC50 turn out when `COc1cc(-c2cc3[nH]c(=O)n(C4CCNCC4)c3cc2C)cn2ncnc12` [1 E, 5-(8-methoxy-[1,2,4]triazolo[1,5-a]pyridin-6-yl)-6-methyl-1-(piperidin-4-yl)-1H-benzo[d]imidazol-2(3H)-one, TFA] was run?
**A.** 366 nM

**Q.** `COc1cc(-c2cc3[nH]c(=O)n(C4CCC(N5CC(F)(F)C5)CC4)c3cc2C(C)C)cn2ncnc12` (single isomer, unassigned) [Example 296] was tested. Which IC50 did it give?
**A.** 31.4 nM

**Q.** `COc1cc(-c2cc3[nH]c(=O)n(C4CCC(N5CCSCC5)CC4)c3cc2C(C)C)cn2ncnc12` (stereo not shown) [Example 251, 6-isopropyl-5-(8-methoxy-[1,2,4]triazolo[1,5-a]pyridin-6-yl)-1-(4-thiomorpholinocyclohexyl)-1,3-dihydro-2H-benzo[d]imidazol-2-one] was tested. Which IC50 did it give?
**A.** 3.54 nM

**Q.** With `COc1cc(-c2cc3[nH]c(=O)n(C4CCC(N(C)CCC(F)(F)F)CC4)c3cc2C(C)C)cn2ncnc12` (single isomer, unassigned) [Example 248, 6-isopropyl-5-(8-methoxy-[1,2,4]triazolo[1,5-a]pyridin-6-yl)-1-(4-(methyl(3,3,3-trifluoropropyl)amino)cyclohexyl)-1,3-dihydro-2H-benzo[d]imidazol-2-one] as the compound, how does the IC50 read?
**A.** 1.12 nM

**Q.** With `Cc1cc2c(cc1-c1cc(C)c3ncnn3c1)[nH]c(=O)n2[C@@H]1CCCN(C2CCOCC2)C1` [Example 27, (R)-6-methyl-5-(8-methyl-[1,2,4]triazolo[1,5-a]pyridin-6-yl)-1-(1-(tetrahydro-2H-pyran-4-yl)piperidin-3-yl)-1,3-dihydro-2H-benzo[d]imidazol-2-one] as the compound, how does the IC50 read?
**A.** 79.5 nM

**Q.** How did the IC50 turn out when `COc1cc(-c2cc3[nH]c(=O)n([C@@H]4CCCNC4)c3cc2C(F)(F)F)cn2ncnc12` [110 F, (R)-5-(8-methoxy-[1,2,4]triazolo[1,5-a]pyridin-6-yl)-1-(piperidin-3-yl)-6-(trifluoromethyl)-1,3-dihydro-2H-benzo[d]imidazol-2-one] was run?
**A.** 28.2 nM

**Q.** `COc1c(C)c(-c2cc3[nH]c(=O)n(C4CCC(N5CCCOCC5)CC4)c3cc2C(C)C)cn2ncnc12` (single isomer, unassigned) [Example 262, 1-(4-(1,4-oxazepan-4-yl)cyclohexyl)-6-isopropyl-5-(8-methoxy-7-methyl-[1,2,4]triazolo[1,5-a]pyridin-6-yl)-1,3-dihydro-2H-benzo[d]imidazol-2-one] was tested. Which IC50 did it give?
**A.** 2.3 nM

**Q.** For `COc1cc(-c2cc3[nH]c(=O)n(C4CCC(N5CCC(S(C)(=O)=O)C5)CC4)c3cc2C(C)C)cn2ncnc12` (single isomer, unassigned) [Example 289, 6-isopropyl-5-(8-methoxy-[1,2,4]triazolo[1,5-a]pyridin-6-yl)-1-(4-(3-(methylsulfonyl)pyrrolidin-1-yl)cyclohexyl)-1,3-dihydro-2H-benzo[d]imidazol-2-one], which IC50 is on record?
**A.** 11.9 nM

**Q.** Which IC50 does the source give for `COc1cc(-c2cc3[nH]c(=O)n(C4CCC(N5CCC(S(C)(=O)=O)C5)CC4)c3cc2C(C)C)cn2ncnc12` (single isomer, unassigned) [Example 288, 6-isopropyl-5-(8-methoxy-[1,2,4]triazolo[1,5-a]pyridin-6-yl)-1-(4-(3-(methylsulfonyl)pyrrolidin-1-yl)cyclohexyl)-1,3-dihydro-2H-benzo[d]imidazol-2-one] here?
**A.** 5.09 nM

**Q.** How did the IC50 turn out when `CCN[C@H]1CC[C@H](n2c(=O)[nH]c3cc(-c4cc(C)c5ncnn5c4)c(C)cc32)CC1` [Example 24, 1-((1r,4s)-4-(ethylamino)cyclohexyl)-6-methyl-5-(8-methyl-[1,2,4]triazolo[1,5-a]pyridin-6-yl)-1,3-dihydro-2H-benzo[d]imidazol-2-one] was run?
**A.** 12.4 nM

**Q.** With `COc1cc(-c2cc3[nH]c(=O)n([C@@H]4CCCNC4)c3cc2C)cn2ncnc12` [1 EH, (R)-5-(8-methoxy-[1,2,4]triazolo[1,5-a]pyridin-6-yl)-6-methyl-1-(piperidin-3-yl)-1,3-dihydro-2H-benzo[d]imidazol-2-one] as the compound, how does the IC50 read?
**A.** 43 nM

**Q.** How did the IC50 turn out when `Cc1cc2c(cc1-c1cc(C)c3ncnn3c1)[nH]c(=O)n2[C@H]1CC[C@@H](NCCC(F)(F)F)CC1` [Example 31] was run?
**A.** 11.1 nM

**Q.** Which IC50 does the source give for `Cc1cc2c(cc1-c1cc(C)c3ncnn3c1)[nH]c(=O)n2C1CCCNC1` (stereo not shown) [1 EC, 6-methyl-5-(8-methyl-[1,2,4]triazolo[1,5-a]pyridin-6-yl)-1-(piperidin-3-yl)-1,3-dihydro-2H-benzo[d]imidazol-2-one] here?
**A.** 105 nM

**Q.** With `COc1cc(-c2cc3[nH]c(=O)n(C4CCC(N5CC6(COC6)C5)CC4)c3cc2C(C)C)cn2ncnc12` (stereo not shown) [Example 254, 1-(4-(2-oxa-6-azaspiro[3.3]heptan-6-yl)cyclohexyl)-6-isopropyl-5-(8-methoxy-[1,2,4]triazolo[1,5-a]pyridin-6-yl)-1,3-dihydro-2H-benzo[d]imidazol-2-one] as the compound, how does the IC50 read?
**A.** 6.81 nM

**Q.** For `COc1c(C)c(-c2cc3[nH]c(=O)n(C4CCC(N5CCCOCC5)CC4)c3cc2C(C)C)cn2ncnc12` (single isomer, unassigned) [Example 261, 1-(4-(1,4-oxazepan-4-yl)cyclohexyl)-6-isopropyl-5-(8-methoxy-7-methyl-[1,2,4]triazolo[1,5-a]pyridin-6-yl)-1,3-dihydro-2H-benzo[d]imidazol-2-one], which IC50 is on record?
**A.** 15.5 nM

**Q.** With `Cc1c(-c2cc3[nH]c(=O)n([C@@H]4CCCNC4)c3cc2C(C)C)cn2ncnc2c1C` [119 FC, (R)-5-(7,8-dimethyl-[1,2,4]triazolo[1,5-a]pyridin-6-yl)-6-isopropyl-1-(piperidin-3-yl)-1,3-dihydro-2H-benzo[d]imidazol-2-one] as the compound, how does the IC50 read?
**A.** 3.26 nM

**Q.** With `Cc1c(-c2cc3[nH]c(=O)n(C4CCC(N5CCCC(F)C5)CC4)c3cc2C(C)C)cn2ncnc2c1C` (stereo not shown) [Example 274, 5-(7,8-dimethyl-[1,2,4]triazolo[1,5-a]pyridin-6-yl)-1-(4-(3-fluoropiperidin-1-yl)cyclohexyl)-6-isopropyl-1,3-dihydro-2H-benzo[d]imidazol-2-one] as the compound, how does the IC50 read?
**A.** 6.78 nM

**Q.** With `COc1cc(-c2cc3[nH]c(=O)n(C4CCC(N5CC[C@H](F)C5)CC4)c3cc2C(C)C)cn2ncnc12` (stereo partly drawn) [Example 286, (S)-1-(4-(3-fluoropyrrolidin-1-yl)cyclohexyl)-6-isopropyl-5-(8-methoxy-[1,2,4]triazolo[1,5-a]pyridin-6-yl)-1,3-dihydro-2H-benzo[d]imidazol-2-one] as the compound, how does the IC50 read?
**A.** 0.7 nM

**Q.** How did the IC50 turn out when `Cc1c(-c2cc3[nH]c(=O)n(C4CCC(N5CCC(F)(F)CC5)CC4)c3cc2C(C)C)cn2ncnc2c1C` (single isomer, unassigned) [Example 276, 1-(4-(4,4-difluoropiperidin-1-yl)cyclohexyl)-5-(7,8-dimethyl-[1,2,4]triazolo[1,5-a]pyridin-6-yl)-6-isopropyl-1,3-dihydro-2H-benzo[d]imidazol-2-one] was run?
**A.** 61.7 nM

**Q.** `Cc1c(-c2cc3[nH]c(=O)n(C4CCC(N5CCCOCC5)CC4)c3cc2C(C)C)cn2ncnc2c1C` (stereo not shown) [Example 272, 1-(4-(1,4-oxazepan-4-yl)cyclohexyl)-5-(7,8-dimethyl-[1,2,4]triazolo[1,5-a]pyridin-6-yl)-6-isopropyl-1,3-dihydro-2H-benzo[d]imidazol-2-one] was tested. Which IC50 did it give?
**A.** 5.37 nM
